# In patent US20150045610A1, “METHOD OF MODIFYING SPERMATOGENESIS, SPERMIOGENESIS AND/OR FERTILITY IN MAMMALS” (Monell Chemical Senses Center, priority 2012, published 2015):
# Molecular target: T1, mouse sweet receptor (mT1R2/mT1R3) (Mus musculus, UniProt Q925D8)
# T1 construct: expressed in transfected cells
# T1 sequence (Q925D8 21-858): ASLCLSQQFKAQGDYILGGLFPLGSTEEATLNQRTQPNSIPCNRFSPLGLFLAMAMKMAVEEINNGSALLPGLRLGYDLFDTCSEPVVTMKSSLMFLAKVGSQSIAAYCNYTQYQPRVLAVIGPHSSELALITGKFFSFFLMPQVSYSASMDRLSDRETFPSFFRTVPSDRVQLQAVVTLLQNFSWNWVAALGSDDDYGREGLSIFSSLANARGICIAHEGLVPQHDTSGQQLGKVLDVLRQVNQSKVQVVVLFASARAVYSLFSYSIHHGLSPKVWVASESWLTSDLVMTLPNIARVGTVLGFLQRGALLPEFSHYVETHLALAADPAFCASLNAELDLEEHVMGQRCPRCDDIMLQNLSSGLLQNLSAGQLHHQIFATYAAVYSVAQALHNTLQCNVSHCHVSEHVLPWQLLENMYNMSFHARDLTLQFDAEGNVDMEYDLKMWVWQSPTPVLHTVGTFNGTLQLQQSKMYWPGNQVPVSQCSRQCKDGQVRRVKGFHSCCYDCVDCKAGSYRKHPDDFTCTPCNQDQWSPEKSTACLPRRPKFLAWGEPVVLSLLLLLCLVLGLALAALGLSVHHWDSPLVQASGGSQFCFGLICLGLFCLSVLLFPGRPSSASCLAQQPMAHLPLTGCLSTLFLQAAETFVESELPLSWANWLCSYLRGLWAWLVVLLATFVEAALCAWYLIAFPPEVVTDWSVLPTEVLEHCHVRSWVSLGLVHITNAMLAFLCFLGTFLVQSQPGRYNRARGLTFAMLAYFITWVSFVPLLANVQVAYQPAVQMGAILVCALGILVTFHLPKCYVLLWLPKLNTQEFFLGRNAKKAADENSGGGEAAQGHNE
# T1 sequence (Q925I4 20-843 partner): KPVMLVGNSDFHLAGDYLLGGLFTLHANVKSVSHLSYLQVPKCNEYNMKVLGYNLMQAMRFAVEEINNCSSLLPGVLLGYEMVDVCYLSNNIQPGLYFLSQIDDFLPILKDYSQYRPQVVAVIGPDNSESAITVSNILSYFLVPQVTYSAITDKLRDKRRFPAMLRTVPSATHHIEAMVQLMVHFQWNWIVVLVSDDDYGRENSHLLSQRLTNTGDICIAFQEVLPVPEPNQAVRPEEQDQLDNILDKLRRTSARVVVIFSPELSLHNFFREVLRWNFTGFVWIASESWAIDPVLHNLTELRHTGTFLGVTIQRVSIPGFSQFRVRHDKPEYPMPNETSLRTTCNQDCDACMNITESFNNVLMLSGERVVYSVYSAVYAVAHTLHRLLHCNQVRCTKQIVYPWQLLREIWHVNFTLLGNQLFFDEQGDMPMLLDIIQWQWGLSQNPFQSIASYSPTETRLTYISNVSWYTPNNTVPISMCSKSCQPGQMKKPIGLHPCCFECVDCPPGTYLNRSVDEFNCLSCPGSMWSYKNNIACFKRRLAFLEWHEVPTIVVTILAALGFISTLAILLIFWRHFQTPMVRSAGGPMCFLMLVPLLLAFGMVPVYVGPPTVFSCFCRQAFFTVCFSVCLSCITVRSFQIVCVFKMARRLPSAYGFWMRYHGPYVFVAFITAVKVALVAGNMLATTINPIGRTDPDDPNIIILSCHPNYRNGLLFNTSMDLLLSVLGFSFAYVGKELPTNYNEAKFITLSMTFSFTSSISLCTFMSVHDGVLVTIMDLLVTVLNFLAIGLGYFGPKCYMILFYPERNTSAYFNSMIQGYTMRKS
# Assay: sweet receptor inhibition assay, mouse receptor
# Assay type: cell-based
# Excerpt: The human T1R3 transmembrane domain determines sensitivity to lactisole, phenoxy herbicides, and fibrates. Inhibition of the receptor's response to sucralose occurred only in the presence of the transmembrane domain of human T1R3. […] Chimeric receptors of T1R3 contained the extracellular portion of human or mouse receptor and the transmembrane domain and C-terminal domain from mouse or human receptor: mh indicates the presence of the mouse extracellular domain and human transmembrane domain; hm indicates the presence of the human extracellular domain and mouse transmembrane domain.
compound,measurement,value
CC(C)(Oc1ccc(Cl)cc1)C(=O)O [clofibric acid],effect on the mouse receptor,no effect
